Results reported in patent US20220288058A1, “COMBINATION THERAPY USING A MALT1 INHIBITOR AND A BTK INHIBITOR” (Janssen Pharmaceutica NV, priority 2021, published 2022).
“Also recorded” adds a separate entry of the source.

Legend:
human IL-10 = test: Study 1: circulating human IL-10 cytokine serum levels in OCI-LY10 tumor bearing NSG mice (MSD assay); format: in vivo, mouse
Procedure: In Study 1, 5×10^6 OCI-LY10 cells in PBS containing 50% Matrigel™ were injected subcutaneously (SC) into the right hind flank of female NSG mice. Tumor growth was measured over time and once tumors reached volumes of approximately 525 mm^3, mice were randomized in groups of 15 and treated orally with a single dose of Compound B according to treatment schedule (see Table 4). Blood was collected serially by mandibular vein sampling from 5 animals per time point per group to determine circulating compound concentration and IL10 levels at 2, 4, 8, 12, 16, and 24 hours post single dose. Blood was harvested in EDTA and plasma was obtained via centrifugation at 3000 rpm for 10 minutes. In addition, tumor samples were harvested from 5 animals per timepoint per treatment group for BTK occupancy studies at 4, 12, and 24 hours post single dose.
NF-κB signaling regulates the secretion of multiple cytokines, including interleukin-10 (IL-10). Both BTK and MALT1 inhibition effect NF-kB signaling resulting in decreased IL-10 transcription and secretion. Circulating human IL-10 cytokine levels were measured in the serum of OCI-LY10 ABC-DLBCL tumor bearing NSG mice, using a Mesoscale Discovery assay (MSD). 25 μL of mouse serum was transferred to an MSD plate (V-Plex Proinflammation Panel 1 [human] kit) and incubated together with 25 μl diluent 2 (MSD; R51BB-3) for 2 hours at RT followed by a 2-hour incubation with IL-6/-10 antibody solution. Plates were read on a SECTOR imager.

[1] = test system: OCI-LY10 human DLBCL xenografts; test: Study 3: combination efficacy (Compound B QD + Compound A BID), OCI-LY10 xenografts in NSG mice; format: in vivo, mouse; settings: Compound B 30 mg/kg QD
Procedure: Following early animal dropouts in Study 2 due to tumor progression (metastasis and hindlimb paralysis), NSG female mice in Study 3 and Study 4 were injected SC into the right flank with a lower cell number (1×10^6 OCI-LY10 cells) in PBS containing 50% Matrigel™. On day 35 (Study 3) or day 32 (Study 4), mice were randomized based on tumor volume (see Table 4) and dosed orally QD day with Compound B and BID with Compound A (Study 3) or BID for both compounds (Study 4) with various dose concentrations according to treatment schedule above (see Table 4) for a period of 21 days.
Tumor volume in SC models was calculated using the formula: tumor volume (mm^3)=(D×d^2/2); where “D” represents the larger diameter and “d” the smaller diameter of the tumor as determined by calliper measurements. Tumor volume data was graphed as the mean tumor volume f SEM.
The percent ΔTGI was defined as the difference between mean tumor burden of the treatment and control groups, calculated using the following formula: ([(TVc−TVc0)−(TVt−TVt0)]/(TVc−TVc0))×100, where “TVc” is the mean tumor burden of a given control group, “TVc0” is the mean initial tumor burden of a given control group, “TVt” is the mean tumor burden of the treatment group, and “TVt0” is the mean initial tumor burden of the treatment group. The percent tumor growth inhibition (TGI) was defined as the difference between mean tumor volumes of the treated and control groups, calculated as: ((TVc−TVt)/TVc)×100 where “TVc” is the mean tumor volume of the control group and “TVt” is the mean tumor volume of the treatment group. […]
Tumor regression was calculated when mean tumor burden in treated group was smaller than the tumor burden at start of treatment of the same treated group. The % Tumor Regression (TR), quantified to reflect the treatment-related reduction of tumor volume as compared to baseline independent of the control group, was calculated using the following formula: % TR=(1-mean (TVti/TVt0i))×100 where “TVti” is the tumor burden of individual animals in a treatment group, and “TVt0i” is the initial tumor burden of the animal. […]

[2] = Body weight and tolerability monitoring of OCI-LY10 tumor bearing NSG mice (Studies 2-4); format: in vivo
Procedure: Subsequently animal body weight and tumor volume was monitored two to three times per week. Animals were monitored daily for clinical signs related to either compound toxicity or tumor burden (i.e., hind limb paralysis, lethargy, dyspnea, etc.).
Body weight changes of individual mice were calculated using the formula: ([W−W0]/W0)×100, where “W” represents mean body weight on a particular day, and “W0” represents body weight at initiation of treatment. Body weight was graphed as mean body weight change±SEM.

C=CC(=O)N[C@H]1CCC[C@H]1NC(=O)c1sc2nccc3c2c1NC(=O)N3c1cnc(CC(C)C)cc1C (atropisomer, axis not shown) [Compound B, N-((1R,2S)-2-acrylamidocyclopentyl)-5-(S)-(6-isobutyl-4-methylpyridin-3-yl)-4-oxo-4,5-dihydro-3H-1-thia-3,5,8-triazaacenaphthylene-2-carboxamide]
human IL-10 serum level, % of vehicle control (human IL-10; 2 hours after single oral dose, dose level not specified): around 50% | human IL-10 serum level, % of vehicle control (human IL-10; 4 hours after single dose, 10 mg/kg): below 20% | human IL-10 serum level, % of vehicle control (human IL-10; 4 hours after single dose, 30 mg/kg): < 10% | human IL-10 serum level, % of vehicle control (human IL-10; 4 hours after single dose, 100 mg/kg): < 5% | human IL-10 serum level, % of vehicle control (human IL-10; 16 hours after single dose, 10 mg/kg): 39% | human IL-10 serum level, % of vehicle control (human IL-10; 16 hours after single dose, 30 mg/kg): 23% | human IL-10 serum level, % of vehicle control (human IL-10; 16 hours after single dose, 100 mg/kg): 23% | human IL-10 serum level (human IL-10; 24 hours after single dose): normalize | decrease in circulating human IL-10 cytokine serum levels (human IL-10; Compound B at 1, 3, 10, 30, or 100 mg/kg single dose, maximal at ≥ 10 mg/kg from 4-8 hours, baseline by 24 hours): Dose-and time-dependent | serum interleukin (IL)-10 secretion (human IL-10; single dose as low as 30 mg/kg, effects lasting up to 24 hours): completely inhibited | human IL-10 serum level (human IL-10; up to 12 hours after single dose, 10, 30, 100 mg/kg): remaining low | TGI ([1]; Study 3, day 53): 50% | ΔTGI ([1]; Study 3, day 53): 65% | animals removed due to clinical signs of tumor progression ([1]; Study 3): 1 | body weight ([2]; Study 2, 3 weeks of treatment): no body weight loss was observed | animals found dead or taken off study due to negative clinical signs ([2]; Study 3, Compound B 30 mg/kg QD): one animal | body weight loss during the 3 weeks of treatment ([2]; Study 3 and Study 4, similar frequencies in vehicle group): low level, transient body weight loss; also recorded: low level, transient, body weight loss | animals removed due to reaching the maximum allowed body weight loss of 20% ([2]; Study 4, Compound B 15 mg/kg): one each | animals died during the study ([2]; Study 4, Compound B 50 mg/kg): one animal | tolerability in NSG mice ([2]; all dose levels tested, up to 50 mg/kg BID or 100 mg/kg QD): well tolerated
